Source: publication PMC8570591 (ACS catalysis, 2021)

Biological target: T1, EanB (Chlorobium limicola, UniProt B3ECE3)
T1 sequence (B3ECE3 1-457): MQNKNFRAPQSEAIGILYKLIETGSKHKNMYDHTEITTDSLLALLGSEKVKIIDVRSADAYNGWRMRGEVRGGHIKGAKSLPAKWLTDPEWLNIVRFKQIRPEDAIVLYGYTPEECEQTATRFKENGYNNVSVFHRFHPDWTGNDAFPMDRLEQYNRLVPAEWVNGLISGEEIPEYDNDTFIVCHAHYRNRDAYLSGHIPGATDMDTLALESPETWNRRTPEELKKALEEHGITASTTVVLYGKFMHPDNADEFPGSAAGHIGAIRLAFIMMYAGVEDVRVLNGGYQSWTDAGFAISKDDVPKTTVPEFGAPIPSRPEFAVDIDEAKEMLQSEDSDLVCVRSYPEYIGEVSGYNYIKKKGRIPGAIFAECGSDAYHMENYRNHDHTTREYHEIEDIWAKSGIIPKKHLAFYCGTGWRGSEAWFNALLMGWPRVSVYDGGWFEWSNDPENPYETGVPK
Experiment: hercynine epsilon-C-H/D2O exchange kinetics by LC-MS, purified enzyme
Type: biochemical

Compound: C[N+](C)(C)[C@@H](Cc1cnc[nH]1)C(=O)[O-] [compound 2, hercynine]
- Kd: 161 ± 18.6 µM
